Data published in ChEMBL document CHEMBL5723584 (2023).

What was measured:
Settings in all cases: Compound concentration 1.0 uM
[1] = biological target: Serine/threonine-protein kinase PAK 1 (Homo sapiens) (UniProt Q13153); experiment: activity of PAK1(h) at 1.0 µM in the Eurofins Kinase panel
[2] = biological target: Focal adhesion kinase 1 (Homo sapiens) (UniProt Q05397); experiment: activity of FAK(h) at 1.0 µM in the Eurofins Kinase panel
[3] = biological target: Testis-specific serine/threonine-protein kinase 4 (Homo sapiens) (UniProt Q6SA08); experiment: activity of TSSK4(h) at 1.0 µM in the Eurofins Kinase panel
Testis-specific serine/threonine-protein kinase 4 (Homo sapiens), sequence (Q6SA08 whole entry): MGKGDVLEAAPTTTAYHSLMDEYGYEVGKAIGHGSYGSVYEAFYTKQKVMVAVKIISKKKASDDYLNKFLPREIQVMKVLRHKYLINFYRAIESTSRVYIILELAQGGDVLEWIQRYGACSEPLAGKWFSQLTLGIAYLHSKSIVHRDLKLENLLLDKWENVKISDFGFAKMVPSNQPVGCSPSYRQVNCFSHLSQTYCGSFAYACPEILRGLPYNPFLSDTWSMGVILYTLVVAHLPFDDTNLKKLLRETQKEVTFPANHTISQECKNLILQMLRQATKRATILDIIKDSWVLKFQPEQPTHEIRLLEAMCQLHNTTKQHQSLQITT

[4] = biological target: Serine/threonine-protein kinase SIK2 (Homo sapiens) (UniProt Q9H0K1); experiment: activity of SIK2(h) at 1.0 µM in the Eurofins Kinase panel
[5] = biological target: Protein-tyrosine kinase 2-beta (Homo sapiens) (UniProt Q14289); experiment: activity of Pyk2(h) at 1.0 µM in the Eurofins Kinase panel
[6] = biological target: Glycogen synthase kinase-3 beta (Homo sapiens) (UniProt P49841); experiment: activity of GSK3beta(h) at 1.0 µM in the Eurofins Kinase panel
[7] = biological target: Serine/threonine-protein kinase Nek7 (Homo sapiens) (UniProt Q8TDX7); experiment: activity of NEK7(h) at 1.0 µM in the Eurofins Kinase panel
Serine/threonine-protein kinase Nek7 (Homo sapiens), sequence (Q8TDX7 whole entry, looked up): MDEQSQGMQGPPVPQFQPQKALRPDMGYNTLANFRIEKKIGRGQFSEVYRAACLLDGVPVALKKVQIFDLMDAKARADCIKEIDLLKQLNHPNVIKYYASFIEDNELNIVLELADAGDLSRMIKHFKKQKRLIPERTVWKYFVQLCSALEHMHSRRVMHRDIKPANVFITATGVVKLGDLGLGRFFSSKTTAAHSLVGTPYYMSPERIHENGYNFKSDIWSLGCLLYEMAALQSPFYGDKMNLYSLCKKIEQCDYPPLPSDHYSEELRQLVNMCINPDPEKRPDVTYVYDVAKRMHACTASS

[8] = biological target: Inhibitor of nuclear factor kappa-B kinase subunit epsilon (Homo sapiens) (UniProt Q14164); experiment: activity of IKKepsilon(h) at 1.0 µM in the Eurofins Kinase panel
[9] = biological target: Serine/threonine-protein kinase/endoribonuclease IRE1 (Homo sapiens) (UniProt O75460); experiment: activity of IRE1(h) at 1.0 µM in the Eurofins Kinase panel
[10] = biological target: Protein kinase C theta type (Homo sapiens) (UniProt Q04759); experiment: activity of PKCtheta(h) at 1.0 µM in the Eurofins Kinase panel
[11] = biological target: Epithelial discoidin domain-containing receptor 1 (Homo sapiens) (UniProt Q08345); experiment: activity of DDR1(h) at 1.0 µM in the Eurofins Kinase panel
[12] = biological target: Mitogen-activated protein kinase kinase kinase 3 (Homo sapiens) (UniProt Q99759); experiment: activity of MEKK3(h) at 1.0 µM in the Eurofins Kinase panel
[13] = biological target: Macrophage colony-stimulating factor 1 receptor (Homo sapiens) (UniProt P07333); experiment: activity of Fms(h) at 1.0 µM in the Eurofins Kinase panel
[14] = biological target: Insulin receptor (Homo sapiens) (UniProt P06213); experiment: activity of IR(h), activated at 1.0 µM in the Eurofins Kinase panel
[15] = biological target: Ribosomal protein S6 kinase alpha-2 (Homo sapiens) (UniProt Q15349); experiment: activity of Rsk3(h) at 1.0 µM in the Eurofins Kinase panel
Ribosomal protein S6 kinase alpha-2 (Homo sapiens), sequence (Q15349 whole entry): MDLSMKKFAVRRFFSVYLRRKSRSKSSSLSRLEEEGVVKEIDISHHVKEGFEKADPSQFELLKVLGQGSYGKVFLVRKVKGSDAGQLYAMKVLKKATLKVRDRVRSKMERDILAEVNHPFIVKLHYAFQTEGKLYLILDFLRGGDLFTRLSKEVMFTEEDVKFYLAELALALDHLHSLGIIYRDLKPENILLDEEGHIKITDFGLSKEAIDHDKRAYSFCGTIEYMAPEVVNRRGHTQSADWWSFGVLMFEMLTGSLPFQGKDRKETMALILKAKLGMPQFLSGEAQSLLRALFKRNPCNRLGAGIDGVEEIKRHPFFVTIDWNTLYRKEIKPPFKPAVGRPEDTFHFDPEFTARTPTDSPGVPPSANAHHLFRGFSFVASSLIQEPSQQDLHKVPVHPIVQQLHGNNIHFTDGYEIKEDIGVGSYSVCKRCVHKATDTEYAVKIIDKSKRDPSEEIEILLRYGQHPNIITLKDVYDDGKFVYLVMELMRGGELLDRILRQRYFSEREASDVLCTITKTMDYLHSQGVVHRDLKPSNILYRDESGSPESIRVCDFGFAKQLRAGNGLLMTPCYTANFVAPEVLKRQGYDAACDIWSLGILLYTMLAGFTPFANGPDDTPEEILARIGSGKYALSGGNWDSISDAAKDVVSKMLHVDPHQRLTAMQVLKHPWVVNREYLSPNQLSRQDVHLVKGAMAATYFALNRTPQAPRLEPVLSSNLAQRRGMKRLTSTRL

[16] = biological target: SRSF protein kinase 1 (Homo sapiens) (UniProt Q96SB4); experiment: activity of SRPK1(h) at 1.0 µM in the Eurofins Kinase panel
[17] = biological target: Serine/threonine-protein kinase ULK2 (Homo sapiens) (UniProt Q8IYT8); experiment: activity of ULK2(h) at 1.0 µM in the Eurofins Kinase panel
Serine/threonine-protein kinase ULK2 (Homo sapiens), sequence (Q8IYT8 whole entry): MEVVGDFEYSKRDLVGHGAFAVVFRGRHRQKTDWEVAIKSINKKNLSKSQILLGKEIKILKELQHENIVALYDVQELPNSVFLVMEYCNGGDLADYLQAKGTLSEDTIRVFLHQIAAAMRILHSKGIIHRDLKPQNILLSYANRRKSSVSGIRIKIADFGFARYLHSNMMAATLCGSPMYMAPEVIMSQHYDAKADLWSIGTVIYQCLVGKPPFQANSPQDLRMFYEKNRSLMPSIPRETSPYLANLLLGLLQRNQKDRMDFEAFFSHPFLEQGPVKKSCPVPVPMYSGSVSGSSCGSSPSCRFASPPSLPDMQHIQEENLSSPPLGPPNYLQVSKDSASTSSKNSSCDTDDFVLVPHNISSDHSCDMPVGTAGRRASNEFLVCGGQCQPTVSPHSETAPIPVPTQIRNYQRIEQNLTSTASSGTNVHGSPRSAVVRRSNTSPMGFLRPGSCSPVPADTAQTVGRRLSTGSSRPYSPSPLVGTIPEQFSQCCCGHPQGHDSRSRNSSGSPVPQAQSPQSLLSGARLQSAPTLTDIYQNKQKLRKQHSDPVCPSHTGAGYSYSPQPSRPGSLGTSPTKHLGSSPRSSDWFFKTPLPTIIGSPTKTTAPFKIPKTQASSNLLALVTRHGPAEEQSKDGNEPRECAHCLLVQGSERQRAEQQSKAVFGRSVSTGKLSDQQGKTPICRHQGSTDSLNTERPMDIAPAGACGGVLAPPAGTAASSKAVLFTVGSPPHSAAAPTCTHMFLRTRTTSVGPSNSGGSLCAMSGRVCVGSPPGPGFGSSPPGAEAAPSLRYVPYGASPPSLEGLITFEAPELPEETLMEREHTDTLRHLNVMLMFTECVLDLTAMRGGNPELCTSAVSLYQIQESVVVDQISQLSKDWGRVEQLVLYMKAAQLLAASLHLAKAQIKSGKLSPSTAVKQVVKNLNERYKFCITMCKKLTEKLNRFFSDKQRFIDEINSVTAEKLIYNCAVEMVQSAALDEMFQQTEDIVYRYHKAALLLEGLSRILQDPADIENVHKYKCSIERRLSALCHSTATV

[18] = biological target: Tyrosine-protein kinase receptor TYRO3 (Homo sapiens) (UniProt Q06418); experiment: activity of Rse(h) at 1.0 µM in the Eurofins Kinase panel
[19] = biological target: Dual specificity protein kinase TTK (Homo sapiens) (UniProt P33981); experiment: activity of TTK(h) at 1.0 µM in the Eurofins Kinase panel
[20] = biological target: Serine/threonine-protein kinase ULK3 (Homo sapiens) (UniProt Q6PHR2); experiment: activity of ULK3(h) at 1.0 µM in the Eurofins Kinase panel
[21] = biological target: Cyclin-dependent kinase-like 4 (Homo sapiens) (UniProt Q5MAI5); experiment: activity of CDKL4(h) at 1.0 µM in the Eurofins Kinase panel
[22] = biological target: Serine/threonine-protein kinase N1 (Homo sapiens) (UniProt Q16512); experiment: activity of PRK1(h) at 1.0 µM in the Eurofins Kinase panel
[23] = biological target: Ephrin type-A receptor 5 (Homo sapiens) (UniProt P54756); experiment: activity of EphA5(h) at 1.0 µM in the Eurofins Kinase panel
[24] = biological target: Serine/threonine-protein kinase BRSK2 (Homo sapiens) (UniProt Q8IWQ3); experiment: activity of BrSK2(h) at 1.0 µM in the Eurofins Kinase panel
[25] = biological target: RAC-gamma serine/threonine-protein kinase (Homo sapiens) (UniProt Q9Y243); experiment: activity of PKBgamma(h) at 1.0 µM in the Eurofins Kinase panel
[26] = biological target: Tyrosine-protein kinase Fyn (Homo sapiens) (UniProt P06241); experiment: activity of Fyn(h) at 1.0 µM in the Eurofins Kinase panel
Tyrosine-protein kinase Fyn (Homo sapiens), sequence (P06241 2-537 limits assumed): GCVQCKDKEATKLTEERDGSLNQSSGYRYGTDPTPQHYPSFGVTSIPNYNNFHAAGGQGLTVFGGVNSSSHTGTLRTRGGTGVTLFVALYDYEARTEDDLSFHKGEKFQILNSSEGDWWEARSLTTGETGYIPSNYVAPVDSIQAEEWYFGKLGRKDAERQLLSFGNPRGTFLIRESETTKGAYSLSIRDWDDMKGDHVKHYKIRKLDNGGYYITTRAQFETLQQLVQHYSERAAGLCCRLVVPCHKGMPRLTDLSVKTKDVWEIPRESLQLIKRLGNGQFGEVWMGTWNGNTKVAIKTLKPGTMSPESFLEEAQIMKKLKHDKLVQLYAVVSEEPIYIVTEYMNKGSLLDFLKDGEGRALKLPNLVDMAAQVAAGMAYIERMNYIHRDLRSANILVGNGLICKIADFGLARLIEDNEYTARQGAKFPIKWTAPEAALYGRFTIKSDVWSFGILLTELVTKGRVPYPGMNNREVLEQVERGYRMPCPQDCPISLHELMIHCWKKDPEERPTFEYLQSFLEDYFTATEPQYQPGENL

[27] = biological target: Serine/threonine-protein kinase PAK 3 (Homo sapiens) (UniProt O75914); experiment: activity of PAK3(h) at 1.0 µM in the Eurofins Kinase panel
[28] = biological target: Cytoplasmic tyrosine-protein kinase BMX (Homo sapiens) (UniProt P51813); experiment: activity of Bmx(h) at 1.0 µM in the Eurofins Kinase panel
[29] = biological target: Serine/threonine-protein kinase pim-2 (Homo sapiens) (UniProt Q9P1W9); experiment: activity of Pim-2(h) at 1.0 µM in the Eurofins Kinase panel
[30] = biological target: Epidermal growth factor receptor (Homo sapiens) (UniProt P00533); experiment: activity of EGFR(h) at 1.0 µM in the Eurofins Kinase panel
Epidermal growth factor receptor (Homo sapiens), sequence (P00533 whole entry): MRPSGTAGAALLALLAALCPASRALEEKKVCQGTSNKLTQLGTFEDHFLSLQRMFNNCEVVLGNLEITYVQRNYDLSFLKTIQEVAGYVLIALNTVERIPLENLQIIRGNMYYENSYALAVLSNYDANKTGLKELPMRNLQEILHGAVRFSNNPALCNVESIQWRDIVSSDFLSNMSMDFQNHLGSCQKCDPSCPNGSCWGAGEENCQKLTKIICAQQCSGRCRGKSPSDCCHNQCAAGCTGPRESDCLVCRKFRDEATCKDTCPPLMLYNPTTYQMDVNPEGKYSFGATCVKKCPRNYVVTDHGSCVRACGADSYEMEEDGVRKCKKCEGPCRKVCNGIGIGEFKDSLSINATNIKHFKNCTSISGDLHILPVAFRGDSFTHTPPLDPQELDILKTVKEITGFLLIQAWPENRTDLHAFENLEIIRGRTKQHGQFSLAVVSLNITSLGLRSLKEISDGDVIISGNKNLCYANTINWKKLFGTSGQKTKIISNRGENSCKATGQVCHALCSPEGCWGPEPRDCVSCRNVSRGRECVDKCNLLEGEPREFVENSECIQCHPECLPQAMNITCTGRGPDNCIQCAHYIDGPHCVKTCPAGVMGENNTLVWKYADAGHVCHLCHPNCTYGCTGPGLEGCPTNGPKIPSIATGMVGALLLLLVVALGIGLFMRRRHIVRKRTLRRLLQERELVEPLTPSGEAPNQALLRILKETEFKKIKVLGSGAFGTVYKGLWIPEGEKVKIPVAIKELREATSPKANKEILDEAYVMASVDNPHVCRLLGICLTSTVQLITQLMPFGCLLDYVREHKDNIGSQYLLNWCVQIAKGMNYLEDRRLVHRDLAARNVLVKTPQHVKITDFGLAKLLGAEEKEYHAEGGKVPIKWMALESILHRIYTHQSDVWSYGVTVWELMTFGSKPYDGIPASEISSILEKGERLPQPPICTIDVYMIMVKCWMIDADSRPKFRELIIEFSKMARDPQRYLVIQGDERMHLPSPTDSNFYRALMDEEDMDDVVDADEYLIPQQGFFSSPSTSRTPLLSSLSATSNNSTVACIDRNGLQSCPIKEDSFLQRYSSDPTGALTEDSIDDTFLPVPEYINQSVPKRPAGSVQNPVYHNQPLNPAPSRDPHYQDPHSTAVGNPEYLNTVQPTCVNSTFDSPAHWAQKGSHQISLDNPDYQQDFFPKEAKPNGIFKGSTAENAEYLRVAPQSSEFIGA

[31] = biological target: Cyclin-dependent kinase 14/Cyclin-Y (Homo sapiens) (UniProt O94921+Q8ND76); experiment: activity of CDK14/cyclinY(h) at 1.0 µM in the Eurofins Kinase panel; assay type: protein-complex assay
[32] = biological target: mTOR/FKBP12A/FKBP12B (Homo sapiens) (UniProt P62942+P68106+P42345); experiment: activity of mTOR/FKBP12(h) at 1.0 µM in the Eurofins Kinase panel; assay type: protein-complex assay
mTOR/FKBP12A/FKBP12B (Homo sapiens), sequence (P62942 2-108 limits assumed, other chains not shown): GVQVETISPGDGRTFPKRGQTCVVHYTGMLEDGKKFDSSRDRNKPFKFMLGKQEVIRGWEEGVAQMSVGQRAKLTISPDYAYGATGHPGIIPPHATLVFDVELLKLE
mTOR/FKBP12A/FKBP12B (Homo sapiens), sequence (P68106 whole entry partner, other chains not shown): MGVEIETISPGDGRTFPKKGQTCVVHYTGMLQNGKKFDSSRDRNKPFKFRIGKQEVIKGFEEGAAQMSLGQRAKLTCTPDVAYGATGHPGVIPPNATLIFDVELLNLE

[33] = biological target: Serine/threonine-protein kinase TBK1 (Homo sapiens) (UniProt Q9UHD2); experiment: activity of TBK1(h) at 1.0 µM in the Eurofins Kinase panel
[34] = biological target: Serine/threonine-protein kinase LATS2 (Homo sapiens) (UniProt Q9NRM7); experiment: activity of LATS2(h) at 1.0 µM in the Eurofins Kinase panel
[35] = biological target: Dual specificity tyrosine-phosphorylation-regulated kinase 1B (Homo sapiens) (UniProt Q9Y463); experiment: activity of DYRK1B(h) at 1.0 µM in the Eurofins Kinase panel
[36] = biological target: Serine/threonine-protein kinase TAO3 (Homo sapiens) (UniProt Q9H2K8); experiment: activity of TAO3(h) at 1.0 µM in the Eurofins Kinase panel
[37] = biological target: Hepatocyte growth factor receptor (Homo sapiens) (UniProt P08581); experiment: activity of Met(h) at 1.0 µM in the Eurofins Kinase panel
[38] = biological target: Tyrosine-protein kinase ZAP-70 (Homo sapiens) (UniProt P43403); experiment: activity of ZAP-70(h) at 1.0 µM in the Eurofins Kinase panel
Tyrosine-protein kinase ZAP-70 (Homo sapiens), sequence (P43403 whole entry): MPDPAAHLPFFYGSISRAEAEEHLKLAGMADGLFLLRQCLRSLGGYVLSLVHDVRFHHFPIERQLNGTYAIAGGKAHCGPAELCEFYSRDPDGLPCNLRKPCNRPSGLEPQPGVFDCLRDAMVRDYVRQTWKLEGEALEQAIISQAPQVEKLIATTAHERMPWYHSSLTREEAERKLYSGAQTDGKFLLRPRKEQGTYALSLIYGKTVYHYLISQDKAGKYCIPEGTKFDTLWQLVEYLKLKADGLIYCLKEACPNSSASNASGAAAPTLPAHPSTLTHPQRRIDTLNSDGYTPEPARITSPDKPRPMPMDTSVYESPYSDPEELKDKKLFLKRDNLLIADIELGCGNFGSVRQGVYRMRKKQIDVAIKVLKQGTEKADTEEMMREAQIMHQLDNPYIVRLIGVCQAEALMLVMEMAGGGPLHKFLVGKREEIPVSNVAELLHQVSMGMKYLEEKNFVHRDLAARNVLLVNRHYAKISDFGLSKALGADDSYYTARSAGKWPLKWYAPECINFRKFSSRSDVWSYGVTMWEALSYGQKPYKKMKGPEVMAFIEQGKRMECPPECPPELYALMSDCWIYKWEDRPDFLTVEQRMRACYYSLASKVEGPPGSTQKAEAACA

[39] = biological target: Platelet-derived growth factor receptor alpha (Homo sapiens) (UniProt P16234); experiment: activity of PDGFRalpha(h) at 1.0 µM in the Eurofins Kinase panel

Q: How did the activity [1] turn out when `Cc1cc2c(-c3ccc(NC(=O)[C@H](N)CC(C)(C)C)cc3C)ccnc2[nH]1` was run?
A: The activity was 95%.

Q: And the activity [2]?
A: The activity was 96%.

Q: What about the activity [3] of the same compound?
A: The activity was 117%.

Q: And the activity [4]?
A: Its activity is 109%.

Q: And the activity [5]?
A: The activity was 76%.

Q: What about the activity [6] of the same compound?
A: The activity was 93%.

Q: What about the activity [7] of the same compound?
A: The activity was 88%.

Q: What about the activity [8] of the same compound?
A: Its activity is 87%.

Q: And the activity [9]?
A: Its activity is 99%.

Q: What about the activity [10] of the same compound?
A: The activity was 103%.

Q: And the activity [11]?
A: The activity was 98%.

Q: What about the activity [12] of the same compound?
A: Its activity is 107%.

Q: What about the activity [13] of the same compound?
A: The activity was 115%.

Q: And the activity [14]?
A: The activity was 92%.

Q: What about the activity [15] of the same compound?
A: The activity was 112%.

Q: And the activity [16]?
A: The activity was 95%.

Q: What about the activity [17] of the same compound?
A: Its activity is 98%.

Q: And the activity [18]?
A: Its activity is 129%.

Q: What about the activity [19] of the same compound?
A: Its activity is 102%.

Q: And the activity [20]?
A: Its activity is 95%.

Q: What about the activity [21] of the same compound?
A: Its activity is 104%.

Q: What about the activity [22] of the same compound?
A: Its activity is 91%.

Q: And the activity [23]?
A: The activity was 89%.

Q: What about the activity [24] of the same compound?
A: The activity was 83%.

Q: What about the activity [25] of the same compound?
A: Its activity is 101%.

Q: What about the activity [26] of the same compound?
A: The activity was 100%.

Q: And the activity [27]?
A: Its activity is 89%.

Q: What about the activity [28] of the same compound?
A: Its activity is 97%.

Q: And the activity [29]?
A: The activity was 117%.

Q: And the activity [30]?
A: Its activity is 107%.

Q: What about the activity [31] of the same compound?
A: Its activity is 91%.

Q: And the activity [32]?
A: The activity was 120%.

Q: What about the activity [33] of the same compound?
A: The activity was 100%.

Q: And the activity [34]?
A: Its activity is 102%.

Q: What about the activity [35] of the same compound?
A: The activity was 108%.

Q: And the activity [36]?
A: The activity was 100%.

Q: What about the activity [37] of the same compound?
A: Its activity is 90%.

Q: What about the activity [38] of the same compound?
A: The activity was 71%.

Q: And the activity [39]?
A: The activity was 116%.
